Data taken from US11712426B2, “Metallo-liothyronine” (Synthonics, Inc., priority 2018, dated 2023).

Legend:
[1] = cited from earlier work; for pKa 1 / pKa 2 / pKa 3: Table 1; for pKa of the carboxylic acid(s): carboxylic acid / COOH group
[2] = plasma profiles of Na(HT3), Zn(HT3)2 and [Zn(T3)]n after oral administration (Example 11); format: in vivo, male Sprague Dawley rats; details: for Cmax average / AUC average / FWHM average (Full Width at Half Maximum): PO capsule; for Cmax average: D = duodenum targeting (Eudragit L100-55) for Zn compounds, S = stomach (uncoated gel cap) for Na(HT3); for AUC average / FWHM average (Full Width at Half Maximum): D for Zn compounds, S for Na(HT3)
Procedure: Duodenum targeting (D) is accomplished by hand coating caps with Eudragit L100-55 (Acryl-Eze, water solvent) designed to dissolve in the duodenum at pH ca. 5.5. Stomach targeting (S) is by using uncoated gel caps.
The Full Width at Half Maximum (FWHM), where Width is measured along the time axis, and Half Maximum is ½Cmax, is a parameter used to evaluate the degree of extended release of drug absorption.

[3] = in vivo; cited from earlier work
[4] = pH 5.0 and above; cited from earlier work

**Q.** With CC1(C)S[C@@H]2[C@H](NC(=O)[C@H](N)c3ccc(O)cc3)C(=O)N2[C@H]1C(=O)O [Amoxicillin] as the compound, how does the “pKa 1” value [1] read?
**A.** 6.71

**Q.** What about the “pKa 2” value [1] of the same compound?
**A.** 9.41

**Q.** What about the “pKa of the carboxylic acid(s)” value [1] of the same compound?
**A.** 6.71

**Q.** What about the “pKa of the phenol” value ([1]; phenol group) of the same compound?
**A.** 9.41

**Q.** What does the source list for CO[C@@]1(NC(=O)C2SC(=C(C(N)=O)C(=O)O)S2)C(=O)N2C(C(=O)O)=C(CSc3nnnn3C)CS[C@@H]21 (stereo partly shown) [Cefotetan]?
**A.** pKa 1 [1]: ca. 2; pKa 2 [1]: ca. 3; pKa of the carboxylic acid(s) [1]: 2-3

**Q.** Which “pKa 1” value [1] does the source give for CN(C)[C@@H]1C(O)=C(C(N)=O)C(=O)[C@@]2(O)C(O)=C3C(=O)c4c(O)ccc(Cl)c4[C@@](C)(O)[C@H]3C[C@@H]12 [Chlortetracycline] here?
**A.** 3.33

**Q.** And the “pKa 2” value [1]?
**A.** 7.55

**Q.** And the “pKa 3” value [1]?
**A.** 9.33

**Q.** Which “pKa 1” value [1] does the source give for CN1C[C@@H]2C[C@H]1CN2c1cc2c(cc1F)c(=O)c(C(=O)O)cn2C1CC1 [Danofloxacin] here?
**A.** 6.07

**Q.** And the “pKa 2” value [1]?
**A.** 8.56

**Q.** What does the source list for CN(C)[C@@H]1C(O)=C(C(N)=O)C(=O)[C@@]2(O)C(O)=C3C(=O)c4c(O)ccc(Cl)c4[C@@H](O)[C@H]3C[C@@H]12 [Demeclocycline]?
**A.** pKa 1 [1]: 3.37; pKa 2 [1]: 7.36; pKa 3 [1]: 9.44

**Q.** Which results are given for CN1CCN(c2cc3c(cc2F)c(=O)c(C(=O)O)cn3-c2ccc(F)cc2)CC1 [Difloxacin]?
**A.** pKa 1 [1]: 5.66; pKa 2 [1]: 7.24

**Q.** Which “pKa 1” value [1] does the source give for C[C@H]1c2cccc(O)c2C(=O)C2=C(O)[C@]3(O)C(=O)C(C(N)=O)=C(O)[C@@H](N(C)C)[C@@H]3[C@@H](O)[C@@H]21 [Doxycycline] here?
**A.** 3.02

**Q.** What about the “pKa 2” value [1] of the same compound?
**A.** 7.97

**Q.** And the “pKa 3” value [1]?
**A.** 9.15

**Q.** For CCn1cc(C(=O)O)c(=O)c2cc(F)c(N3CCNCC3)nc21 [Enoxacin], which “pKa 1” value [1] is on record?
**A.** 6.00

**Q.** And the “pKa 2” value [1]?
**A.** 8.50

**Q.** Which “pKa 1” value [1] does the source give for CCN1CCN(c2cc3c(cc2F)c(=O)c(C(=O)O)cn3C2CC2)CC1 [Enrofloxacin] here?
**A.** 3.85

**Q.** What about the “pKa 2” value [1] of the same compound?
**A.** 6.19

**Q.** Which pKa (physchem) does the source give for N[C@@H](Cc1cc(I)c(Oc2ccc(O)c(I)c2)c(I)c1)C(=O)O [Example T3, triiodothyronine] here?
**A.** 8.94

**Q.** With CN1CCN(c2c(F)cc3c(=O)c(C(=O)O)cn(CCF)c3c2F)CC1 [Fleroxacin] as the compound, how does the “pKa 1” value [1] read?
**A.** 5.46

**Q.** What about the “pKa 2” value [1] of the same compound?
**A.** 8.00

**Q.** What does the source list for CN1CCN(c2c(F)cc3c(=O)c(C(=O)O)cn4c3c2OCN4C)CC1 [Marbofloxacin]?
**A.** pKa 1 [1]: 5.69; pKa 2 [1]: 8.02

**Q.** For C=C1c2c(Cl)ccc(O)c2C(=O)C2=C(O)[C@]3(O)C(=O)C(C(N)=O)=C(O)[C@@H](N(C)C)[C@@H]3[C@@H](O)[C@H]12 [Meclocycline], which “pKa 1” value [1] is on record?
**A.** 4.05

**Q.** And the “pKa 2” value [1]?
**A.** 6.87

**Q.** What about the “pKa 3” value [1] of the same compound?
**A.** 9.59

**Q.** Which “pKa 1” value [1] does the source give for CN(Cc1cnc2nc(N)nc(N)c2n1)c1ccc(C(=O)N[C@@H](CCC(=O)O)C(=O)O)cc1 [Methotrexate] here?
**A.** 4.8

**Q.** Which results are given for N[C@@H](Cc1cc(I)c(Oc2ccc(O)c(I)c2)c(I)c1)C(=O)[O-].[Na+] [Na(HT3)]?
**A.** Cmax average [2]: 0.45 ng/mL; AUC average [2]: 3.71 ng·h/mL; FWHM average (Full Width at Half Maximum) [2]: 4.9 h

**Q.** For CC1COc2c(N3CCN(C)CC3)c(F)cc3c(=O)c(C(=O)O)cn1c23 (stereo not shown) [Ofloxacin], which “pKa 1” value [1] is on record?
**A.** 6.22

**Q.** What about the “pKa 2” value [1] of the same compound?
**A.** 7.81

**Q.** What does the source list for CN(C)[C@@H]1C(O)=C(C(N)=O)C(=O)[C@@]2(O)C(O)=C3C(=O)c4c(O)cccc4[C@@](C)(O)[C@H]3[C@H](O)[C@@H]12 [Oxytetracycline]?
**A.** pKa 1 [1]: 3.22; pKa 2 [1]: 7.46; pKa 3 [1]: 8.94

**Q.** For CCn1cc(C(=O)O)c(=O)c2cnc(N3CCNCC3)nc21 [Pipemidic acid], which “pKa 1” value [1] is on record?
**A.** 5.42

**Q.** And the “pKa 2” value [1]?
**A.** 8.18

**Q.** For O=C(O)c1cn(-c2ccc(F)cc2)c2cc(N3CCNCC3)c(F)cc2c1=O [Sarafloxacin], which “pKa 1” value [1] is on record?
**A.** 5.62

**Q.** What about the “pKa 2” value [1] of the same compound?
**A.** 8.18

**Q.** Which results are given for CCCCC(=O)N(Cc1ccc(-c2ccccc2-c2nnn[nH]2)cc1)[C@H](C(=O)O)C(C)C [Valsartan]?
**A.** bioavailability [3]: about 25%; in vitro dissolution [4]: complete and rapid

**Q.** With N[C@@H](Cc1cc(I)c(Oc2ccc(O)c(I)c2)c(I)c1)C(=O)[O-].N[C@@H](Cc1cc(I)c(Oc2ccc(O)c(I)c2)c(I)c1)C(=O)[O-].[Zn+2] [Zn(HT3)2, Bis-T3 Zinc] as the compound, how does the “AUC with respect to simulated Cytomel” value ([2]; PO) read?
**A.** comparable AUC

**Q.** And the “Cmax with respect to simulated Cytomel” value ([2]; PO)?
**A.** blunted Cmax

**Q.** And the Cmax average [2]?
**A.** 0.24 ng/mL

**Q.** And the AUC average [2]?
**A.** 3.45 ng·h/mL

**Q.** And the “FWHM average (Full Width at Half Maximum)” value [2]?
**A.** 16.6 h
